Patent publication US6649639B2, “Antipicornaviral compounds, compositions containing them, and methods for their use” (priority 1997, dated 2003)

Experiments:
HRV serotype 10 = assay: Antirhinoviral HI-HeLa Cell Culture Assay (XTT cell protection), HRV serotype 10; format: cell-based, human rhinovirus; settings: HRV serotype 10, HI-HeLa cells
Procedure: (§1) In the Cell Protection Assay, the ability of compounds to protect cells against HRV infection was measured by the XTT dye reduction method. This method is described in Weislow, O. S., Kiser, R., Fine, D. L., Bader, J., Shoemaker, R. H., Boyd, M. R., J. Natl. Cancer Inst. 1989, 81, 577-586, the disclosure of which is incorporated herein by reference.
(§2) Infected or mock-infected cells were suspended at 8×10^5 cells per mL and incubated with appropriate concentrations of compounds of formula I. Two days later, XTT/PMS was added to test plates, and the amount of formazan produced was quantified spectrophotometrically at 450/650 nm. […] The therapeutic index (TI) was calculated by dividing the CC50 by the EC50.
(§3) All strains of human rhinovirus (HRV) for use in this assay were purchased from American Type Culture Collection (ATCC) except for HRV serotype-14, which was produced from the infectious cDNA clone constructed and supplied to Applicants by Dr. Robert Rueckert at the Institute for Molecular Virology, University of Wisconsin, Madison, Wis. HRV stocks were propagated, and viral assays were performed in HI-HeLa cells (ATCC). Cells were grown in Minimal Essential Medium, available from Life Technologies, with 10% fetal bovine serum.
(§4) The compounds were tested against control compounds WIN 51711, WIN 52084, and WIN 54954, all obtained from Sterling-Winthrop Pharmaceuticals, and control compound Pirodavir, obtained from Janssen Pharmaceuticals. Antiviral data obtained for the test compounds are shown in Table 2 where all data are for HRV serotype-14 unless otherwise noted in parentheses.

HRV serotype 1A = assay: Antirhinoviral HI-HeLa Cell Culture Assay (XTT cell protection), HRV serotype 1A; format: cell-based, human rhinovirus; settings: HI-HeLa cells
Procedure: as §1, §2, §3, §4

HI-HeLa cells [1] = assay: Cytotoxicity (CC50) in mock-infected HI-HeLa cells, antirhinoviral assay; format: cell-based
HRV serotype-14 = assay: Antirhinoviral HI-HeLa Cell Culture Assay (XTT cell protection), HRV-14; format: cell-based, human rhinovirus; settings: HRV serotype-14, HI-HeLa cells
Procedure: as §1, §2, §3, §4

HRV serotype 2 = assay: Antirhinoviral HI-HeLa Cell Culture Assay (XTT cell protection), HRV serotype 2; format: cell-based, human rhinovirus; settings: HRV serotype 2, HI-HeLa cells
Procedure: as §1, §2, §3, §4

HRV serotype 89 = assay: Antirhinoviral HI-HeLa Cell Culture Assay (XTT cell protection), HRV serotype 89; format: cell-based, human rhinovirus; settings: HRV serotype 89, HI-HeLa cells
Procedure: as §1, §2
(§5) All strains of human rhinovirus (HRV) for use in this assay were purchased from American Type Culture Collection (ATCC) except for HRV serotype-14, which was produced from the infectious cDNA clone constructed and supplied to Applicants by Dr. Robert Rueckert at the Institute for Molecular Virology, University of Wisconsin, Madison, Wis. HRV stocks were propagated, and viral assays were performed in HI-HeLa cells (ATCC). Cells were grown in Minimal Essential Medium, available from Life Technologies, with 10% fetal bovine serum. […]

HRV serotype 39 = assay: Antirhinoviral HI-HeLa Cell Culture Assay (XTT cell protection), HRV serotype 39; format: cell-based, human rhinovirus; settings: HRV serotype 39, HI-HeLa cells
Procedure: as §1, §2, §5

HI-HeLa cells [2] = assay: Cytotoxicity (CC50) in uninfected HI-HeLa cells, anticoxsackieviral assay; format: cell-based; settings: CVA-21 assay
Procedure: The Coxsackie strain A-21 (CVA-21) was purchased from American Type Culture Collection (ATCC). Virus stocks were propagated, and antiviral assays were performed in HI-HeLa cells (ATCC). Cells were grown in Minimal Essential Medium with 10% fetal bovine serum.
The ability of compounds to protect cells against CVA-21 infection was measured by the XTT dye reduction method. This method is described in Weislow, O. S., Kiser, R., Fine, D. L., Bader, I., Shoemaker, R. H., Boyd, M. R., J. Natl. Cancer Inst. 1989, 81, 577-586, the disclosure of which is incorporated herein by reference. HI-HeLa cells were infected with CVA-21 at a multiplicity of infection (m.o.i.) of 0.05 (CVA-21) or mock-infected with medium only. Infected or uninfected cells were resuspended at 4×10^4 cells per mL and incubated with appropriate concentrations of drug. One day later, XTT/PMS was added to test plates, and the amount of formazan produced was quantified spectrophotometrically at 450/650 nm. […] The therapeutic index (Th) was calculated by dividing the CC50 by the EC50.

[3] = biological target: T1, Recombinant Rhinovirus 3C protease serotype 14 (Human rhinovirus 14, UniProt P03303); assay: Inhibition of Rhinovirus Protease (FRET assay), serotype 14; format: biochemical, human rhinovirus (HRV) serotype 14; settings: for kobs/I: RVP serotype-14, enzyme start progress curves
T1 construct: Recombinant Rhinovirus 3C proteases from serotypes 14, 16, and 2; made in house
T1 sequence (P03303 1538-1719): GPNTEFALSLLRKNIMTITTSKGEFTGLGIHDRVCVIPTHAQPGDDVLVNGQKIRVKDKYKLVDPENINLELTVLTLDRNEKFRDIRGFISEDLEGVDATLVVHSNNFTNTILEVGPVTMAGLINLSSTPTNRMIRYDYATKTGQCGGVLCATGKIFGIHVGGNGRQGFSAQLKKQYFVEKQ

[4] = biological target: Recombinant Rhinovirus 3C protease serotype 16 (Human rhinovirus 16, UniProt Q82122); settings: RVP serotype 16; enzyme start progress curves
Chain of Recombinant Rhinovirus 3C protease serotype 16 (Q82122 1511-1693): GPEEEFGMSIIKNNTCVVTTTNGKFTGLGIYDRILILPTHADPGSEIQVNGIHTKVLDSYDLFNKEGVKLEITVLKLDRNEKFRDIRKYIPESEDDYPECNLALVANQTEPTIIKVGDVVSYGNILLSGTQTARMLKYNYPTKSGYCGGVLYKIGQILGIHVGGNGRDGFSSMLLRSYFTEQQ
Procedure: (§6) Stock solutions (50 mM, in DMSO) of various compounds were prepared; dilutions were in the same solvent. […] Assays contained 2% DMSO, 50 mM tris pH 7.6, 1 mM EDTA, a compound at the indicated concentrations, approximately 1 μM substrate, and 50-100 nM protease. […] The kobs/I values were obtained from reactions initiated by addition of enzyme rather than substrate. RVP activity is measured in the fluorescence resonance energy transfer assay.
(§7) In the above table, all data are for RVP serotype-14 unless otherwise noted in parentheses. All strains of human rhinovirus (HRV) were purchased from American Type Culture Collection (ATCC) except for serotype 14, which was produced from the infectious cDNA clone constructed and supplied to Applicants by Dr. Robert Rueckert at the Institute for Molecular Virology, University of Wisconsin, Madison, Wis. The column designated INHIB represents the percent inhibition at 10 minute preincubation with 50 nM RVP prior to addition of substrate. The data in the column designated kobs/I was measured from progress curves in enzyme start experiments.

[5] = biological target: Recombinant Rhinovirus 3C protease serotype 2 (Human rhinovirus 2, UniProt P04936); settings: RVP serotype 2; enzyme start progress curves
Chain of Recombinant Rhinovirus 3C protease serotype 2 (P04936 1508-1690): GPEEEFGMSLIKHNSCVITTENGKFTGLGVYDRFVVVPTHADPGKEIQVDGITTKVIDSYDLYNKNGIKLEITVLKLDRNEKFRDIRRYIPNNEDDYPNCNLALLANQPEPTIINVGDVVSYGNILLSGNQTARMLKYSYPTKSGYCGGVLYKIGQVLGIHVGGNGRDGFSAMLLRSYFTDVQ
Procedure: as §6, §7

| Compound | EC50 (HRV serotype 10) | CC50 (HI-HeLa cells [1]; line of HRV serotype 1A) | CC50 (HI-HeLa cells [1]; line of HRV serotype 10) | CC50 (HI-HeLa cells [1]; line of HRV serotype-14) | EC50 (HRV serotype-14) | also measured |
| --- | --- | --- | --- | --- | --- | --- |
| CCOC(=O)C=CC(CCC(N)=O)NC(=O)C(CC(=O)C(NC(=O)C1SCCCS1)C(C)C)Cc1ccc(F)cc1 (stereo not drawn) [Compound 31] | 4700 nM | > 3000 nM | > 3000 nM | > 3000 nM |  | EC50 (HRV serotype 1A): 6300 nM |
| CCOC(=O)C=CC(CCC(N)=O)NC(=O)C(CC(=O)C(NC(=O)c1cc(C)on1)C(C)C)Cc1ccc(F)cc1 (stereo not drawn) [Compound 34] | 400 nM | > 3000 nM | > 3000 nM | > 3000 nM |  | EC50 (HRV serotype 1A): 300 nM |
| CCOC(=O)C=CC(CCC(N)=O)NC(=O)C(CC(=O)C(NC(=O)C1SCCS1)C(C)C)Cc1ccc(F)cc1 (stereo not drawn) [Compound 27] | 3300 nM | > 1000 nM | > 1000 nM | > 1000 nM |  |  |
| CCOC(=O)C=CC(CCC(N)=O)NC(=O)C(CC(=O)C(NC(=O)SC(C)(C)C)C(C)C)Cc1ccc(F)cc1 (stereo not drawn) [Compound 26] | 550 nM | > 10000 nM | > 10000 nM | > 10000 nM | 50 nM |  |
| CCOC(=O)/C=C/C(CCC(N)=O)NC(=O)C(CC(=O)C(NC(=O)SC1CCCC1)C(C)C)Cc1ccccc1 [Compound 7, Ethyl-3-(CyPentylSCO-L-ValΨ[COCH2]-L-Phe-L-Gln)-E-Propenoate] | 35 nM |  | > 10000 nM | > 10000 nM | 22 nM | EC50 (HRV serotype 2): 100 nM; EC50 (HRV serotype 89): 4 nM; EC50 (HRV serotype 39): 130 nM; CC50 (HI-HeLa cells [1]; line of HRV serotype 2): > 10000 nM; CC50 (HI-HeLa cells [1]; line of HRV serotype 39): > 10000 nM; CC50 (HI-HeLa cells [1]; line of HRV serotype 89): > 10000 nM; CC50 (HI-HeLa cells [2]): > 10000 nM |
| CCOC(=O)/C=C/C(CCC(N)=O)NC(=O)C(CC(=O)C(NC(=O)SCc1ccccc1)C(C)C)Cc1ccccc1 [Compound 5, Ethyl-3-(BnSCO-L-ValΨ[COCH2]-L-Phe-L-Gln)-E-Propenoate] |  |  |  | > 320000 nM | 190 nM |  |
| CCOC(=O)/C=C/[C@H](CCC(N)=O)NC(=O)[C@@H](CC(=O)[C@@H](NC(=O)SCC)C(C)C)Cc1ccccc1 [Compound 4, Ethyl-3-(EtSCO-L-ValΨ[COCH2]-L-Phe-L-Gln)-E-Propenoate] |  |  |  | > 320000 nM | 100 nM | EC50 (HRV serotype 2): 500 nM; CC50 (HI-HeLa cells [1]; line of HRV serotype 2): > 320000 nM |
| CCOC(=O)/C=C/C(CCC(N)=O)NC(=O)C(CC(=O)C(CC(C)C)NC(=O)SCc1ccccc1)Cc1ccccc1 [Compound 6, Ethyl-3-(BnSCO-L-LeuΨ[COCH2]-L-Phe-L-Gln)-E-Propenoate] |  |  |  | > 100000 nM | 680 nM |  |
| CC(C)C(NC(=O)SC1CCCC1)C(=O)CC(Cc1ccc(F)cc1)C(=O)NC(C=CC(=O)OCCO)CCC(N)=O (stereo not drawn) [Compound 33] | 1600 nM | > 32000 nM | > 32000 nM | > 32000 nM | 510 nM | kobs/I [3]: 281,000 M^−1sec^−1; EC50 (HRV serotype 1A): 1700 nM |
| CCOC(=O)/C=C/[C@H](CCC(N)=O)NC(=O)[C@@H](CC(=O)[C@H](CC(C)C)NC(=O)SC1CCCC1)Cc1ccccc1 [Compound 8, Ethyl-3-(CyPentylSCO-L-LeuΨ[COCH2]-L-Phe-L-Gln)-E-Propenoate] |  |  |  | > 100000 nM | 190 nM |  |
| Ethyl-3-(CyPentylSCO-L-CyhexΨ[COCH2]-L-(p-F)Phe-L-Gln)-E-Propenoate [Compound 24] |  |  |  |  | 32 nM |  |
| CC(C)C(NC(=O)SC(C)(C)C)C(=O)CC(Cc1ccc(F)cc1)C(=O)NC(C=CC(=O)OCc1cccnc1)CCC(N)=O (stereo not drawn) [Compound 32] | 1900 nM | > 32000 nM | > 32000 nM | > 32000 nM | 400 nM | kobs/I [3]: 58,000 M^−1sec^−1; EC50 (HRV serotype 1A): 2200 nM |
| CCOC(=O)/C=C/C(CCC(N)=O)NC(=O)C(CC(=O)C(CC(C)C)NC(=O)OCc1ccccc1)Cc1ccccc1 [Compound 1, Ethyl-3-(CBZ-L-LeuΨ[COCH2]-L-Phe-L-Gln)-E-Propenoate] |  |  |  | > 320000 nM | 360 nM | kobs/I [3]: 17,380 M^−1sec^−1; kobs/I [4]: 3,880 M^−1sec^−1; kobs/I [5]: 2,242 M^−1sec^−1 |
| CC(C)C(NC(=O)C1SCCS1)C(=O)CC(Cc1ccc(F)cc1)C(=O)NC(C=CC(=O)OCc1cccnc1)CCC(N)=O (stereo not drawn) [Compound 30] |  |  |  | > 100000 nM | 1500 nM | kobs/I [3]: 292,000 M^−1sec^−1 |
| CC(C)C(NC(=O)SC1CCCC1)C(=O)CC(Cc1ccc(F)cc1)C(=O)NC(C=CC(=O)OCc1cccnc1)CCC(N)=O (stereo not drawn) [Compound 28] | 1000 nM | > 10000 nM | > 10000 nM | > 10000 nM |  | EC50 (HRV serotype 1A): 600 nM |
| CCOC(=O)/C=C/[C@H](CCC(N)=O)NC(=O)[C@@H](CC(=O)[C@H](CC(C)C)NC(=O)SCC)Cc1ccccc1 [Compound 2, Ethyl-3-(EtSCO-L-LeuΨ[COCH2]-L-Phe-L-Gln)-E-Propenoate] |  |  |  | > 320000 nM | 240 nM | EC50 (HRV serotype 2): 1800 nM; CC50 (HI-HeLa cells [1]; line of HRV serotype 2): > 320000 nM |
| Cc1cc(CCCCCOc2c(Cl)cc(C3=NCCO3)cc2Cl)on1 [WIN 54954, reference compound] |  |  |  |  |  | CC50 (HI-HeLa cells [2]): > 100000 nM |
| CCOC(=O)/C=C/[C@H](CCC(N)=O)NC(=O)[C@@H](CC(=O)[C@@H](NC(=O)SCC)C(C)C)Cc1ccc(C)cc1 [Compound 10, Ethyl-3-(EtSCO-L-ValΨ[COCH2]-L-(p-CH3)Phe-L-Gln)-E-Propenoate] |  |  |  | > 1000 nM | 11 nM | EC50 (HRV serotype 2): 180 nM; CC50 (HI-HeLa cells [1]; line of HRV serotype 2): > 1000 nM |
| CC(C)CC(NC(=O)SCc1ccccc1)C(=O)CC(Cc1ccccc1)C(=O)NC(C=CC(=O)N1CCc2ccccc21)CCC(N)=O [Compound 3, (2,3-Dihydroindole)-3-(BnSCO-L-LeuΨ[COCH2]-L-Phe-L-Gln)-E-Propenamide] |  |  |  |  |  | Ki [3]: > 7000 nM |
